The nature of data set [1]: Human microsome stability assay. The data set is classed as in vitro ADME. The conditions noted are these: 1 μM test compound, 0.5 mg/mL liver microsomal protein, 37° C. How it is done:
The human microsomal stability assay is used for early assessment of metabolic stability of a test compound in human liver microsomes.
Human liver microsomes (Cat. NO.: 452117, Corning, USA; Cat. NO.:H2610, Xenotech, USA) were preincubated with test compound for 10 minutes at 37° C. in 100 mM potassium phosphate buffer, pH 7.4. The reactions were initiated by adding NADPH regenerating system.
The final incubation mixtures contained 1 μM test compound, 0.5 mg/mL liver microsomal protein, 1 mM MgCl2, 1 mM NADP, 1 unit/mL isocitric dehydrogenase and 6 mM isocitric acid in 100 mM potassium phosphate buffer, pH 7.4. After incubation times of 0, 3, 6, 9, 15 and 30 minutes at 37° C., 300 μL of cold acetonitrile (including internal standard) was added to 100 μL incubation mixture to terminate the reaction. Following precipitation and centrifugation, the amount of compound remaining in the samples were determined by LC-MS/MS. Controls of no NADPH regenerating system at zero and 30 minutes were also prepared and analyzed.
In general terms: Microsomes from liver hold many membrane-bound enzymes, among them those of drug oxidation.

In a further data set the target is T1, TLR9 (Homo sapiens, UniProt Q9NR96).
T1 sequence (Q9NR96 26-1032): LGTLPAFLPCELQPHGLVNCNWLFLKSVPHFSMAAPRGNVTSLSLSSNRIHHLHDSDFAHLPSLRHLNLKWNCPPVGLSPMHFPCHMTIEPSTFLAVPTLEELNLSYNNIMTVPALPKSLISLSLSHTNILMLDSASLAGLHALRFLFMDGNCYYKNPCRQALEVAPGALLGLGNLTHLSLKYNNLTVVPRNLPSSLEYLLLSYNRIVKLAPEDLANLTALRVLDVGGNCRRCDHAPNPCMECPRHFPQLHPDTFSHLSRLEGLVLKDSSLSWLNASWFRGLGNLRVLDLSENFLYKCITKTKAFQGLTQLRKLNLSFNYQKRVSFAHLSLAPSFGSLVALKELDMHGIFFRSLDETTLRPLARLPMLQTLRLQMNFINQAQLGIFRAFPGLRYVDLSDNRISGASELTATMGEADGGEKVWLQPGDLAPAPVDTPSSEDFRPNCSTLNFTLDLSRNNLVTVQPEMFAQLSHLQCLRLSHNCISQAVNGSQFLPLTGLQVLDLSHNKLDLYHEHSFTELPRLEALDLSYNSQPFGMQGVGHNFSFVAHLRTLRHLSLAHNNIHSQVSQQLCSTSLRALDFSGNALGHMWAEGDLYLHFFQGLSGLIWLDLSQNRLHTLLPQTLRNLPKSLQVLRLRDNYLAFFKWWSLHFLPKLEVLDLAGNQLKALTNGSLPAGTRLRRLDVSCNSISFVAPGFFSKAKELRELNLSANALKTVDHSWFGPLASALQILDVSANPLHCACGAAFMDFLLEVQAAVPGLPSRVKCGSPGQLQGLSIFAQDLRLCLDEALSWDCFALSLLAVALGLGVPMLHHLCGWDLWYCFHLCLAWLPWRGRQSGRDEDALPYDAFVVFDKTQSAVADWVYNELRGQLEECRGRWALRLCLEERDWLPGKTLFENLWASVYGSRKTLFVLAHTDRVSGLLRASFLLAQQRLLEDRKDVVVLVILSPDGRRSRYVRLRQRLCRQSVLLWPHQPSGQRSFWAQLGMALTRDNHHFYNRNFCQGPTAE
In words: HEK293-Blue-hTLR-9 cells assay. The data set is classed as cell-based. Also noted: host or cells: HEK293 (HEK-Blue hTLR9). The conditions noted are these: HEK293-Blue-hTLR9 cells, ODN2006 stimulation, 20 hrs; read-out: HEK/hTLR9 IC50. From the text:
A stable HEK293-Blue-hTLR-9 cell line was purchased from InvivoGen (Cat. #: hkb-htlr9, San Diego, California, USA). These cells were originally designed for studying the stimulation of human TLR9 by monitoring the activation of NF-κB. A SEAP (secreted embryonic alkaline phosphatase) reporter gene was placed under the control of the IFN-β minimal promoter fused to five NF-κB and AP-1-binding sites. The SEAP was induced by activating NF-κB and AP-1 via stimulating HEK-Blue hTLR9 cells with TLR9 ligands. Therefore the reporter expression was declined by TLR9 antagonist under the stimulation of a ligand, such as ODN2006 (Cat. #: tlrl-2006-1, Invivogen, San Diego, California, USA), for incubation of 20 hrs. The cell culture supernatant SEAP reporter activity was determined using QiANTI-Blue™ kit (Cat. #: rep-qbl, Invivogen, San Diego, California, USA) at a wavelength of 640 nm, a detection medium that turns purple or blue in the presence of alkaline phosphatase.
HEK293-Blue-hTLR9 cells were incubated at a density of 250,000-450,000 cells/mL in a volume of 170 μL in a 96-well plate in Dulbecco's Modified Eagle's medium (DMEM) containing 4.5 g/L glucose, 50 U/mL penicillin, […], […], 10% (v/v) heat-inactivated fetal bovine serum with addition of 20 μL test compound in a serial dilution in the presence of final DMSO at 1% and 10 μL of 20 μM ODN2006 in above DMEM, perform incubation under 37° C. in a C02 incubator for 20 hrs. Then 20 μL of the supernatant from each well was incubated with 180 μl. Quanti-blue substrate solution at 37° C. for 2 h and the absorbance was read at 620˜655 nm using a spectrophotometer. The signaling pathway that TLR9 activation leads to downstream NF-κB activation has been widely accepted, and therefore similar reporter assay was modified for evaluating TLR9 antagonist.

`Cc1cc(N2CCC(c3cnc(N4CCNCC4)cn3)CC2)c2cnn(C)c2n1` [Example 3, 1,6-dimethyl-4-[4-(5-piperazin-1-ylpyrazin-2-yl)-1-piperidyl]pyrazolo[3,4-b]pyridine]: the “Clearance of Human microsome” value in data set [1] worked out at 9.3 mL/min/kg. Also, the IC50 at TLR9 came to 124 nM.
The matching figures for `Cc1cc(N2CCNCC2)cnc1C1CCN(c2ccnc3c2cnn3C)CC1` [Example 5, 1-methyl-4-[4-(3-methyl-5-piperazin-1-yl-2-pyridyl)-1-piperidyl]pyrazolo[3,4-b]pyridine]: 9.1 mL/min/kg and 364 nM.
With `Cc1cc(N2CCNCC2)ncc1C1CCN(c2ccnc3c2cnn3C)CC1` [Example 6, 1-methyl-4-[4-(4-methyl-6-piperazin-1-yl-3-pyridyl)-1-piperidyl]pyrazolo[3,4-b]pyridine], the “Clearance of Human microsome” value in data set [1] was determined as 9.3 mL/min/kg. For the same compound, the IC50 on TLR9 was determined as 208 nM.
Taken in the same sequence, the figures for `Cc1cc(N2CCC(c3ncc(N4CCNCC4)cc3C)CC2)c2cnn(C)c2n1` [Example 7, 1,6-dimethyl-4-[4-(3-methyl-5-piperazin-1-yl-2-pyridyl)-1-piperidyl]pyrazolo[3,4-b]pyridine] were 6.2 mL/min/kg and 52 nM.
As for `CCc1cc(N2CCNCC2)cnc1C1CCN(c2cc(C)nc3c2cnn3C)CC1` [Example 13, 4-[4-(3-ethyl-5-piperazin-1-yl-2-pyridyl)-1-piperidyl]-1,6-dimethyl-pyrazolo[3,4-b]pyridine], the “Clearance of Human microsome” value in data set [1] is listed as 7.2 mL/min/kg. In addition, the IC50 on TLR9 is 168 nM.
The matching figures for `COc1cc(N2CCNCC2)cnc1C1CCN(c2cc(C)nc3c2cnn3C)CC1` [Example 14, 4-[4-(3-methoxy-5-piperazin-1-yl-2-pyridyl)-1-piperidyl]-1,6-dimethyl-pyrazolo[3,4-b]pyridine]: 6.7 mL/min/kg and 225 nM.
Taken in the same sequence, the figures for `Cc1cc(N2CC[C@@H](c3ncc(N4CC5(CNCCO5)C4)cc3C)[C@H](C)C2)c2cnn(C)c2n1` [Example 27, 2-[6-[(3S,4R)-1-(1,6-dimethylpyrazolo[3,4-b]pyridin-4-yl)-3-methyl-4-piperidyl]-5-methyl-3-pyridyl]-5-oxa-2,8-diazaspiro[3.5]nonane] were 9.1 mL/min/kg and 184 nM.
Consider `Cc1cc(N2CC[C@@H](c3ncc(N4CCOC[C@@H](N)C4)cc3C)[C@H](C)C2)c2cnn(C)c2n1` [Example 28, (6S)-4-[6-[(3S,4R)-1-(1,6-dimethylpyrazolo[3,4-b]pyridin-4-yl)-3-methyl-4-piperidyl]-5-methyl-3-pyridyl]-1,4-oxazepan-6-amine], for which the “Clearance of Human microsome” value in data set [1] is on record as 6.2 mL/min/kg. The IC50 at TLR9 was found to be 126 nM.
The matching figures for `COC[C@H]1CN(c2cnc([C@@H]3CCN(c4cc(C)nc5c4cnn5C)C[C@H]3C)c(C)c2)CCN1` [Example 29, 4-[(3S,4R)-4-[5-[(3R)-3-(methoxymethyl)piperazin-1-yl]-3-methyl-2-pyridyl]-3-methyl-1-piperidyl]-1,6-dimethyl-pyrazolo[3,4-b]pyridine]: 6.8 mL/min/kg and 238 nM.
With `Cc1cc(N2CC[C@@H](c3ncc(N4CC(C)(N)C4)cc3C)[C@H](C)C2)c2cnn(C)c2n1` [Example 32, 1-[6-[(3S,4R)-1-(1,6-dimethylpyrazolo[3,4-b]pyridin-4-yl)-3-methyl-4-piperidyl]-5-methyl-3-pyridyl]-3-methyl-azetidin-3-amine], the “Clearance of Human microsome” value in data set [1] came out at 8.8 mL/min/kg. In addition, the IC50 on TLR9 stood at 186 nM.
`Cc1cc(N2CC[C@@H](c3ncc(N4C[C@H]5NCCO[C@@H]5C4)cc3C)[C@H](C)C2)c2cnn(C)c2n1` [Example 33, (4aR,7aR)-6-[6-[(3S,4R)-1-(1,6-dimethylpyrazolo[3,4-b]pyridin-4-yl)-3-methyl-4-piperidyl]-5-methyl-3-pyridyl]-3,4,4a,5,7,7a-hexahydro-2H-pyrrolo[3,4-b][1,4]oxazine]: the “Clearance of Human microsome” value in data set [1] worked out at 6.2 mL/min/kg. The IC50 on TLR9 was determined as 79 nM.
In the case of `Cc1cc(N2CC[C@@H](c3ccc(N4CCNCC4)cn3)[C@H](C)C2)c2cnn(C)c2n1` [Example 34, 1,6-dimethyl-4-[(3S,4R)-3-methyl-4-(5-piperazin-1-yl-2-pyridyl)-1-piperidyl]pyrazolo[3,4-b]pyridine], in data set [1], the “Clearance of Human microsome” value came out at 9.8 mL/min/kg. In addition, the IC50 at TLR9 is 165 nM.
In the case of `Cc1cc(N2CC[C@H](c3ccc(N4CCNCC4)cn3)[C@@H](C)C2)c2cnn(C)c2n1` [Example 35, 1,6-dimethyl-4-[(3R,4S)-3-methyl-4-(5-piperazin-1-yl-2-pyridyl)-1-piperidyl]pyrazolo[3,4-b]pyridine], in data set [1], the “Clearance of Human microsome” value is 6.2 mL/min/kg. Also, on TLR9, the IC50 came out at 158 nM.
Taken in the same sequence, the figures for `COC[C@H]1CN(c2ccc([C@H]3CCN(c4cc(C)nc5c4cnn5C)C[C@@H]3C)nc2)CCN1` [Example 37, 4-[(3R,4S)-4-[5-[(3R)-3-(methoxymethyl)piperazin-1-yl]-2-pyridyl]-3-methyl-1-piperidyl]-1,6-dimethyl-pyrazolo[3,4-b]pyridine] were 6.2 mL/min/kg and 332 nM.
The matching figures for `Cc1cc(N2CC[C@H](c3ccc(N4CC5(CNCCO5)C4)cn3)[C@@H](C)C2)c2cnn(C)c2n1` [Example 38, 2-[6-[(3R,4S)-1-(1,6-dimethylpyrazolo[3,4-b]pyridin-4-yl)-3-methyl-4-piperidyl]-3-pyridyl]-5-oxa-2,8-diazaspiro[3.5]nonane]: 7.8 mL/min/kg and 192 nM.
The matching figures for `CO[C@H]1CN(c2ccc([C@H]3CCN(c4cc(C)nc5c4cnn5C)C[C@@H]3C)nc2)CC[C@@H]1N` [Example 39, (3S,4S)-1-[6-[(3R,4S)-1-(1,6-dimethylpyrazolo[3,4-b]pyridin-4-yl)-3-methyl-4-piperidyl]-3-pyridyl]-3-methoxy-piperidin-4-amine]: 6.7 mL/min/kg and 211 nM.
For the compound `Cc1cc(N2CC[C@H](c3ccc(N4CCOC[C@@H](N)C4)cn3)[C@@H](C)C2)c2cnn(C)c2n1` [Example 40, (6S)-4-[6-[(3R,4S)-1-(1,6-dimethylpyrazolo[3,4-b]pyridin-4-yl)-3-methyl-4-piperidyl]-3-pyridyl]-1,4-oxazepan-6-amine], in data set [1], the “Clearance of Human microsome” value is reported as 8.1 mL/min/kg. Also, the IC50 at TLR9 was determined as 173 nM.

For the origin of these results see patent publication US20240360126A1, “PYRAZOLO[3,4-B]PYRIDINE COMPOUNDS FOR THE TREATMENT OF AUTOIMMUNE DISEASE” (Hoffmann-La Roche Inc., priority 2021, published 2024).
